Experimental data reported in paper PMC5823565, “Targeting ovarian cancer and endothelium with an allosteric PTP4A3 phosphatase inhibitor” (Oncotarget, 2017).
Entries after “also recorded” stand apart in the source; their conditions may differ.

Legend:
[1] = biological target: T1, PTP4A3 protein (Homo sapiens, UniProt O75365); assay: PTP4A3 phosphatase activity assay with DiFMUP substrate; format: biochemical; parameters: using a full-length recombinant human PTP4A3 and DiFMUP as the substrate; His6; made in house; details: full-length recombinant human PTP4A3, DiFMUP substrate; read-out: PTP4A3 inhibition, inactive at concentrations as high as
[2] = system: A2780 spheroids; assay: Spheroid viability assay (CellTiterGlo 3D); format: cell-based; details: Homo sapiens, 48 h, Mean ± SD, N=3
[3] = system: OVCAR4 spheroids; assay: Spheroid viability assay (CellTiterGlo 3D); format: cell-based; details: Homo sapiens, OVCAR-4; 48 h, Mean ± SD, N=3
[4] = system: SKOV3IP1 spheroids; assay: Spheroid viability assay (CellTiterGlo 3D); format: cell-based; details: Homo sapiens; 48 h, Mean ± SD, N=3
[5] = system: SKOV3 spheroids; assay: Spheroid viability assay (CellTiterGlo 3D); format: cell-based; details: Homo sapiens, SK-OV-3; 48 h, Mean ± SD, N=3
[6] = system: COV362 spheroids; assay: Spheroid viability assay (CellTiterGlo 3D); format: cell-based; details: Homo sapiens, 48 h, Mean ± SD, N=3
[7] = system: normal human ovarian HI0-180 epithelial cells; assay: Spheroid viability assay (CellTiterGlo 3D); format: cell-based; details: Epithelial cell, 48 h
[8] = system: A2780CP20 spheroids; assay: Spheroid viability assay (CellTiterGlo 3D); format: cell-based; details: Homo sapiens; 48 h, Mean ± SD, N=3
[9] = system: HeyA8-MDR spheroids; assay: Spheroid viability assay (CellTiterGlo 3D); format: cell-based; details: Homo sapiens, 48 h, Mean ± SD, N=3
[10] = system: SKOV3TRIP2 spheroids; assay: Spheroid viability assay (CellTiterGlo 3D); format: cell-based; details: Homo sapiens; 48 h, Mean ± SD, N=3
[11] = system: A2780; assay: 2D monolayer viability assay (CellTiter Blue); format: cell-based; details: Homo sapiens, A2780; 48 h, Mean ± SD, N=3; read-out: Monolayer (IC50 µM) A2780
[12] = system: HEYA8-MDR; assay: 2D monolayer viability assay (CellTiter Blue); format: cell-based; details: Homo sapiens, 48 h, Mean ± SD, N=3
[13] = system: A2780CP20; assay: 2D monolayer viability assay (CellTiter Blue); format: cell-based; details: Homo sapiens; 48 h, Mean ± SD, N=3
[14] = system: OVCAR4; assay: 2D monolayer viability assay (CellTiter Blue); format: cell-based; details: Homo sapiens, OVCAR-4; 48 h, Mean ± SD, N=3
[15] = system: SKOV3TRIP2; assay: 2D monolayer viability assay (CellTiter Blue); format: cell-based; details: Homo sapiens; 48 h, Mean ± SD, N=3
[16] = system: HEYA8; assay: 2D monolayer viability assay (CellTiter Blue); format: cell-based; details: Homo sapiens, HEY A8; 48 h, Mean ± SD, N=3
[17] = system: SKOV3IP1; assay: 2D monolayer viability assay (CellTiter Blue); format: cell-based; details: Homo sapiens; 48 h, Mean ± SD, N=3
[18] = system: IMR90 fibroblasts; assay: 2D monolayer viability assay (CellTiter Blue); format: cell-based; details: Homo sapiens, IMR-90; 48 h, N=3
[19] = system: SKOV3; assay: 2D monolayer viability assay (CellTiter Blue); format: cell-based; details: Homo sapiens, SK-OV-3; 48 h, Mean ± SD, N=3
[20] = system: HeyA8 cells; assay: Scratch wound migration assay; format: cell-based, human; details: measured 14 h after scratch
[21] = system: RhoA activation in HeyA8 cells; assay: RhoA G-LISA activation assay; format: cell-based, human; details: HeyA8, 1 µM
[22] = biological target: T1, PTP4A3 protein; assay: Thermal shift assay with SYPRO orange; format: binding; parameters: made in house; details: 100 µM compound, 16 μM protein
[23] = system: OvCa cell lines; assay: 2D monolayer viability assay, across the panel; format: cell-based, human; details: Homo sapiens, 48 h, read-out: no significant growth inhibition of any of the OvCa cell lines at concentrations as high as
[24] = system: OvCa cell line spheroids; assay: Spheroid viability assay, across the panel; format: cell-based; details: Homo sapiens; 48 h exposure; read-out: no effects on spheroids in any cell lines at concentrations up to
[25] = system: HeyA8 spheroids; assay: Spheroid viability and growth assay; format: cell-based, human
[26] = biological target: LMPTP-B (Homo sapiens, UniProt P24666); assay: Phosphatase specificity profiling (PhosphataseProfiler); format: biochemical; details: 10 µM DiFMUP, commercial vendor, N=2, read-out: % Activity (Mean ± SD) LMPTP-B
[27] = biological target: T2, Lambda PP (Phage) (Escherichia phage lambda, UniProt P03772); assay: as above; format: biochemical; details: 10 µM DiFMUP, commercial vendor, N=2, read-out: % Activity (Mean ± SD) Lambda PP (Phage)
T2 construct: purchased Eurofins (Dundee, Scotland, UK), PhosphataseProfiler

[28] = biological target: PTPN7 (HePTP) (Homo sapiens, UniProt P35236); assay: as above; format: biochemical; details: 10 µM DiFMUP, commercial vendor, N=2, read-out: % Activity (Mean ± SD) PTPN7 (HePTP)
[29] = system: Rac1 activation in human MVEC; assay: Rac1 activation assay in MVEC after LPS; format: cell-based; details: 5 µM pretreatment 24 h, LPS 0.5 EU/mL 1 h
[30] = system: primary human lung microvascular endothelial cells (MVEC); assay: Endothelial barrier function (TEER, ECIS) after LPS challenge; format: cell-based
[31] = biological target: PTP4A1 (Homo sapiens, UniProt Q93096); assay: PTP4A1 phosphatase activity assay with DiFMUP; format: biochemical; details: DiFMUP substrate
[32] = system: RhoA activation in human MVEC; assay: RhoA activation pull-down assay in MVEC after LPS; format: cell-based; details: 5 µM pretreatment 24 h, LPS 0.5 EU/mL 1 h
[33] = biological target: T3, p38α (Homo sapiens, UniProt Q16539); assay: Kinase profiling (KinaseSeeker); format: biochemical; details: 1 µM screening concentration
T3 construct: purchased Luceome Biotechnologies (Tucson, AZ), KinaseSeeker

[34] = system: primary human lung microvascular endothelial cells (MVEC); assay: Endothelial barrier function (TEER, ECIS) after VEGF challenge; format: cell-based; details: 5 µM
[35] = biological target: PTPRB (PTPβ) (Homo sapiens, UniProt P23467); assay: Phosphatase specificity profiling (PhosphataseProfiler); format: biochemical; details: 10 µM DiFMUP, commercial vendor, N=2, read-out: % Activity (Mean ± SD) PTPRB (PTPβ)
[36] = biological target: DUSP13 (TMDP) (Homo sapiens, UniProt Q9UII6); assay: as above; format: biochemical; details: 10 µM DiFMUP, commercial vendor, N=2, read-out: % Activity (Mean ± SD) DUSP13 (TMDP)
DUSP13 (TMDP), sequence (Q9UII6 whole entry): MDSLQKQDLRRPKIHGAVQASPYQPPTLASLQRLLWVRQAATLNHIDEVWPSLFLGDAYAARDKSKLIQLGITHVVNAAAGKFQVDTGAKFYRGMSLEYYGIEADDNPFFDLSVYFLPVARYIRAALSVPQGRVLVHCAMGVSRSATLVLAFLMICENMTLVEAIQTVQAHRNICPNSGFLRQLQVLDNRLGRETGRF

T1 sequence (O75365 whole entry): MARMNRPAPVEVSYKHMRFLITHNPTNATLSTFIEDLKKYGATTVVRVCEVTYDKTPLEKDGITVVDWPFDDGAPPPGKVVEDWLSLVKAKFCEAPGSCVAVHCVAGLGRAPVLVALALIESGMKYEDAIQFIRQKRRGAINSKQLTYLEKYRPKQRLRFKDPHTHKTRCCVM
PTP4A1, sequence (Q93096 whole entry): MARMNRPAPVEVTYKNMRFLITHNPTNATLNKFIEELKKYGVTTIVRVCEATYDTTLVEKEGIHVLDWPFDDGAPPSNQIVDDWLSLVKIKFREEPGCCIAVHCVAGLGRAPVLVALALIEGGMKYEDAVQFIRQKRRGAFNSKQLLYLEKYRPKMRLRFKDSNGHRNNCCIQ
PTPN7 (HePTP), sequence (P35236 whole entry): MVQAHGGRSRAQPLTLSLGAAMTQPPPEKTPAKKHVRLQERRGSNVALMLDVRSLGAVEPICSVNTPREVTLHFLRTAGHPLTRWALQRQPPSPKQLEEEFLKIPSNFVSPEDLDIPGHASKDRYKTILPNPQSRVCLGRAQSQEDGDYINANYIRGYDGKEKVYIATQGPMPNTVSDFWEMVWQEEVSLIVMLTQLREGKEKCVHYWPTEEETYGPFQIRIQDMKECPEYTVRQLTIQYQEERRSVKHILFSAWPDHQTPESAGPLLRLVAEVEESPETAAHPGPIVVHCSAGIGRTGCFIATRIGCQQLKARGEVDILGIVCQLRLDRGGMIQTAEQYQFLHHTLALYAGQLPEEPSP
LMPTP-B, sequence (P24666 1-158 isoform P24666-2): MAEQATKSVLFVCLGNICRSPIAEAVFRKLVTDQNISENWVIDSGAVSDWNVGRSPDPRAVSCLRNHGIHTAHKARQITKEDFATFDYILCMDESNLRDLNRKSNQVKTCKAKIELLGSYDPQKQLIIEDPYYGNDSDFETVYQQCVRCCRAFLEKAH
T3 sequence (Q16539 whole entry): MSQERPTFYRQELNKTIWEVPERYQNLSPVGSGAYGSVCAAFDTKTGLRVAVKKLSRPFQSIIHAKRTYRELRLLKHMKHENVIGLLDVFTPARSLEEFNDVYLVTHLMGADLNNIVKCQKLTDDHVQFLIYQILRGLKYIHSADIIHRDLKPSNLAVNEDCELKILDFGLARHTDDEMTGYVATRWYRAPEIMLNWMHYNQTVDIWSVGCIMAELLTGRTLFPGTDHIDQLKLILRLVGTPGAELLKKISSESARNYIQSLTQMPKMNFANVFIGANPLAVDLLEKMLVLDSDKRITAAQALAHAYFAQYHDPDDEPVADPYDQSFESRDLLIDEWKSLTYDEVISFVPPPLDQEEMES
PTPRB (PTPβ), sequence (P23467 23-1997): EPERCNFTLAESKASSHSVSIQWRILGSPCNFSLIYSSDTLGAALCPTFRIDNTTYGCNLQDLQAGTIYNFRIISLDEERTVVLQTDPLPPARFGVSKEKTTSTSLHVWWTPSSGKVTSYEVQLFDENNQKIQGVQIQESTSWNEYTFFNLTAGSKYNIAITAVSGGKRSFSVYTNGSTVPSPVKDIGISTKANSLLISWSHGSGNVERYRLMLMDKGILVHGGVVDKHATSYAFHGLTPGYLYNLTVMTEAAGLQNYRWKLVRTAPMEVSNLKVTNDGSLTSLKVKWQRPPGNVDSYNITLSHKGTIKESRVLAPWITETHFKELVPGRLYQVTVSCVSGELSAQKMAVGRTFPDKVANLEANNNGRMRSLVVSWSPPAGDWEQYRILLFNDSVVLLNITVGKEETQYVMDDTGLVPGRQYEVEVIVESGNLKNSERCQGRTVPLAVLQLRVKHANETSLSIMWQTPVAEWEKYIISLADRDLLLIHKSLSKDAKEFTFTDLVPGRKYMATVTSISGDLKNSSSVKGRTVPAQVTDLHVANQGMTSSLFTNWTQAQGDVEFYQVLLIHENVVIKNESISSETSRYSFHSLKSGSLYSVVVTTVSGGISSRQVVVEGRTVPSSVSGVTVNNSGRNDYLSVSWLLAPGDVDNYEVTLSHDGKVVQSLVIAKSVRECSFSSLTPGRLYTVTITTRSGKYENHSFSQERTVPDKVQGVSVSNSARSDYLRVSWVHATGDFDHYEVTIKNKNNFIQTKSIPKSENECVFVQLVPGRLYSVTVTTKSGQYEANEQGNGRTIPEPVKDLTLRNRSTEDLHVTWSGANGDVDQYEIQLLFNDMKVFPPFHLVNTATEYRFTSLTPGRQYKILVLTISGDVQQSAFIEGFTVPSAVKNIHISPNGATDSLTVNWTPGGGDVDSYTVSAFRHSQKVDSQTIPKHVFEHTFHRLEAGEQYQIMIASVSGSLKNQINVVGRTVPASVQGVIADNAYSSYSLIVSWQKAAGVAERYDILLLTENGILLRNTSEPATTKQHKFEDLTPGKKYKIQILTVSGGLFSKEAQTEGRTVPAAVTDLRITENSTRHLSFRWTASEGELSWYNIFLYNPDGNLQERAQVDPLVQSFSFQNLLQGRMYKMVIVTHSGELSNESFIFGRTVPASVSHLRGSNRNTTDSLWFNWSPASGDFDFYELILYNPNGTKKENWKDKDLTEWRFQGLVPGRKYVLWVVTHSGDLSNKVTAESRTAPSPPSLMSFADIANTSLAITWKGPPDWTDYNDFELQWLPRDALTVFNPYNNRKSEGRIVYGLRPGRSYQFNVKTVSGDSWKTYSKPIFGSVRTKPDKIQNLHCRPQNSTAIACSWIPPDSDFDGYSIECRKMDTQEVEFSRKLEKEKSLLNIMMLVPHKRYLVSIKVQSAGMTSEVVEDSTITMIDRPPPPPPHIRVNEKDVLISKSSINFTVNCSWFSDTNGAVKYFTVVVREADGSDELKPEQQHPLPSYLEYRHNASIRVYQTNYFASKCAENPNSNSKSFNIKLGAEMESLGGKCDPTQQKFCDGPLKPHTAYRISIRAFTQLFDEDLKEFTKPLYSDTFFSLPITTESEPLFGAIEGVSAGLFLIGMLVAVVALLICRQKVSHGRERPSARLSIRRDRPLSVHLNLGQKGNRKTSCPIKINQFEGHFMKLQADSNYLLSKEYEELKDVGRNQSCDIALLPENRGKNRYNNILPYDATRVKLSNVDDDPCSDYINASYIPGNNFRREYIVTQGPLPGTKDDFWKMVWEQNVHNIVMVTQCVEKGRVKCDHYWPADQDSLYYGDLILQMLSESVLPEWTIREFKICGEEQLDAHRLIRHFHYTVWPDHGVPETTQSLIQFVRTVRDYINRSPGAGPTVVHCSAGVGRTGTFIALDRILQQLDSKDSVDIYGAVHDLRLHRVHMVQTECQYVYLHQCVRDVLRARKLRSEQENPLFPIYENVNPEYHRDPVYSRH
T2 sequence (P03772 whole entry): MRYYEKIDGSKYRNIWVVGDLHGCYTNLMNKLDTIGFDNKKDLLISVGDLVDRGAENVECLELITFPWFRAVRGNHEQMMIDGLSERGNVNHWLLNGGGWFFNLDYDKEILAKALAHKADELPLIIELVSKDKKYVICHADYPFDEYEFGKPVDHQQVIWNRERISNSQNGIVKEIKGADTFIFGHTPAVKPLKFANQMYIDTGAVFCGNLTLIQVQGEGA

With `O=c1[nH]c(=O)c2cc(-c3ccccc3)sc2[nH]1` [JMS-038] the IC50 [1] was > 100 µM, the IC50 [2] was > 50 µM and the IC50 [3] was > 50 µM. For the same molecule, the IC50 [4] was > 50 µM, the IC50 [5] was > 50 µM and the IC50 [6] was > 50 µM. For the same molecule, the IC50 [7] was > 25 µM, the IC50 [8] was > 50 µM and the IC50 [9] was > 50 µM. The IC50 [10] was > 50 µM, the IC50 [11] was > 50 µM and the IC50 [12] was > 50 µM. For the same molecule, the IC50 [13] was > 50 µM, the IC50 [14] was > 50 µM and the IC50 [15] was > 50 µM. For the same molecule, the IC50 [16] was > 50 µM, the IC50 [17] was > 50 µM and the IC50 [18] was > 50 µM. The IC50 [19] was > 50 µM, the “migration of HeyA8 cells after wounding” value [20] was “but not JMS-038 blocked the migration” and the “effect on RhoA activation compared to DMSO vehicle control” value [21] was “no significant effect”. For the same molecule, the “∆Tm of PTP4A3 (destabilizing thermal shift)” value [22] was “no significant thermal shift; also recorded: no effect”, the IC50 [23] was > 50 µM and the IC50 [24] was > 50 µM. For the same molecule, the IC50 ([25]; Homo sapiens, HEY A8, 48 h, Mean ± SD, N=3) was > 50 µM and the “HeyA8 cell spheroid growth (images)” value ([25]; images 48 h after plating and 24 h after compound addition) was “but not JMS-038 inhibited HeyA8 cell spheroid growth”.

For `N=C1C(=O)NC(=O)c2cc(-c3ccccc3)sc21` [JMS-053], the activity at 1 µM [26] was 99%, the activity at 1 µM [27] was 72 ± 3% and the activity at 1 µM [28] was 97 ± 3%. The “LPS-mediated reduction in Rac1 activation” value [29] was “blocked”, the “TEER after LPS, pretreatment” value ([30]; 5 µM, 24 h prior to LPS 0.5 EU/mL) was “prevented LPS-induced disruption of the endothelial barrier function” and the “TEER after LPS, post-treatment” value ([30]; treatment 3 h after LPS exposure) was “no observed mitigation”. For the same molecule, the activity at 1 µM ([31]; 1 µM, in-house assay, N=2, read-out: % Activity (Mean ± SD) PTP4A1) was 1%, the IC50 [31] was 0.05 ± 0.014 µM and the “LPS-mediated RhoA activation” value [32] was “blocked”. For the same molecule, the “inhibition of p38α” value [33] was ~50%, the “TEER after VEGF, pretreatment” value ([34]; 2 h before VEGF 100 ng/mL then continuous exposure) was “normalized” and the “TEER after VEGF, post-treatment” value ([34]; 3 h after VEGF 100 ng/mL) was “normalized endothelial barrier function”. The activity at 1 µM [35] was 95 ± 5% and the activity at 1 µM [36] was 95 ± 1%.

`Nc1c[nH]c(=O)c2cc(-c3ccccc3)sc12` [thienopyridone, reference compound] was tested, and the IC50 [11] was 4.5 ± 0.6 µM, the IC50 [12] was > 50 µM and the IC50 [13] was 13.1 ± 6 µM. The IC50 [14] was 15.5 ± 2.4 µM, the IC50 [15] was > 50 µM and the IC50 [16] was 47 ± 4.9 µM. It also gave an IC50 [17] of 31.3 ± 8.5 µM and an IC50 [19] of 28.8 ± 2.2 µM.
